Measurements taken from US20230406865A1, “CRYSTAL FORM OF FREE BASE OF INHIBITOR CONTAINING BICYCLIC RING DERIVATIVE AND PREPARATION METHOD AND APPLICATION OF CRYSTAL FORM” (SHANGHAI HANSOH BIOMEDICAL CO., LTD., priority 2020, published 2023).

How the values were obtained:
[1] = tested on: TT cells (MTC, RET C634W); test: Inhibition of proliferation of TT cells (CellTiter-Glo, 72 h); assay type: cell-based; settings: Homo sapiens
Description: TT cells were purchased from the cell bank of the Chinese Academy of Sciences.
When TT cells were cultured to the appropriate fusion level, TT cells were collected, and the cells were adjusted to the appropriate cell concentration using complete medium, and the cell suspension was spread in a 96-well plate, 90 μL per well, and placed to the wall of a 37° C., 5% CO2 incubator overnight; and compound solutions of different concentrations were prepared using DMSO and culture medium; and a solvent control was set, the compound solution was added to a 96-well plate, 10 μL per well, and placed to the wall of a 37° C., 5% CO2 incubator for 72 hours; CellTiter-Glo solution was added thereto and the mixture was mixed well by shaking, incubated for 10 minutes in the dark, and read by BioTek Synergy H1 microplate reader.
The IC50 values were obtained by using luminescence signal values to calculate the inhibition rate, the concentration and the inhibition rate were fitted to a nonlinear regression curve using Graphpad Prism software.

Ba/F3 KIF5B-RET cells = target: T1, Ba/F3 KIF5B-RET cells (Homo sapiens, UniProt P07949); test: Inhibition of proliferation of Ba/F3 KIF5B-RET cells (CellTiter-Glo); assay type: cell-based; settings: 72 to 144 hours
T1 construct: fused on or other part: P33176 (Kinesin-1 heavy chain)
T1 sequence (P07949 whole entry, change not shown, the tested form may be a part): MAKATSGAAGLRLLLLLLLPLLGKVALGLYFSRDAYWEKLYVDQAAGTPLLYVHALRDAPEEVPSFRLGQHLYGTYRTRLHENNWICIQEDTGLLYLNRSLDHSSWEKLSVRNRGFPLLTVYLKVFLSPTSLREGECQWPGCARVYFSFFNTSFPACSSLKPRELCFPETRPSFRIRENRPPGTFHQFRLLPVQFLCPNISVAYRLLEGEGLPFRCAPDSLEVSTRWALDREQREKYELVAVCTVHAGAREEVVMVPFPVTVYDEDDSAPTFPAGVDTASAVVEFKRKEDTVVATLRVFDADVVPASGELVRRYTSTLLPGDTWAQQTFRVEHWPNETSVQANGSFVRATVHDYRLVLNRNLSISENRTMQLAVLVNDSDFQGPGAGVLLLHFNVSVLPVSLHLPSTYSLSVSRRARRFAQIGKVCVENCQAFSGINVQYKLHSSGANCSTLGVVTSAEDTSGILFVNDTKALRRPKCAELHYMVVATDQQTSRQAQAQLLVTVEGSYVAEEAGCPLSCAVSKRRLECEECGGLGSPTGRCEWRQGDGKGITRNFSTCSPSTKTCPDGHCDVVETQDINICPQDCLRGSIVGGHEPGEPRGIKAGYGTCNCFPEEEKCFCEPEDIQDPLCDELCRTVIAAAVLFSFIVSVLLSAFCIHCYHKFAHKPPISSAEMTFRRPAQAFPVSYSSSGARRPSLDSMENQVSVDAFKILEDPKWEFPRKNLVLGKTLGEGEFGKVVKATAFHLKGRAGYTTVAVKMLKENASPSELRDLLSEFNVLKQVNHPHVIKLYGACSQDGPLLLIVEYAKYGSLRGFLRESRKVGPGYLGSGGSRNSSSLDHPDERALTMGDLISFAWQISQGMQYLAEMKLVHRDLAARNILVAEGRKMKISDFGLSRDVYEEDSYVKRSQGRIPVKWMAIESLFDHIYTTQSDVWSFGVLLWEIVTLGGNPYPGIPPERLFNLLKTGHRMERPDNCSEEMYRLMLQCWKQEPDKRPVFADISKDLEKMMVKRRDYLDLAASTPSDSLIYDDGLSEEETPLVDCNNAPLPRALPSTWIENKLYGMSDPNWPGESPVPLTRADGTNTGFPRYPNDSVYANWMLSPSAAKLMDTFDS
Description: When Ba/F3 KIF5B-RET cells were cultured to the appropriate cell density, cells were collected, and the cells were adjusted to the appropriate cell concentration using complete medium, and the cell suspension was spread in a 96-well plate, 90 μL per well, and placed in the wall of a 37° C., 5% CO2 incubator overnight; compound solutions of different concentrations were prepared using DMSO and culture medium; a solvent control was set, and the compound solution was added to a 96-well plate with […] at 37° C. in a 5% CO2 incubator for 72 to 144 hours, CellTiter-Glo solution was added thereto and mixed well by shaking, incubated for 10 minutes in the dark, and read by BioTek Synergy H1 microplate reader.
The IC50 values were obtained by using the luminescence signal values to calculate the inhibition rate, the concentrations and the inhibition rates were fitted to a nonlinear regression curve using Graphpad Prism software.

Structure (SMILES) | IC50 [1] [µM] | IC50 (Ba/F3 KIF5B-RET cells) [µM]
COc1ncc(CN2C3CC2CN(c2ccc(-c4cc(C#CC5(O)CCOCC5)cn5ncc(C#N)c45)cn2)C3)cc1F [Embodiment 79, 4-(6-(6-((5-Fluoro-6-methoxypyridin-3-yl)methyl)-3,6-diazabicyclo[3.1.1]heptan-3-yl)pyridin-3-yl)-6-((4-hydroxytetrahydro-2H-pyran-4-yl)ethynyl)pyrazolo[1,5-a]pyridine-3-carbonitrile] | 0.0105 | 0.0137
COc1ccc(CN2C3CC2CN(c2ccc(-c4cc(C#CC5(O)COC5)cn5ncc(C#N)c45)cn2)C3)cn1 [Embodiment 80, 6-((3-Hydroxyoxetan-3-yl)ethynyl)-4-(6-(6-((6-methoxypyridin-3-yl)methyl)-3,6-diazabicyclo[3.1.1]heptan-3-yl)pyridin-3-yl)pyrazolo[1,5-a]pyridine-3-carbonitrile] | 0.0173 | 0.0239
COc1ncc(CN2C3CC2CN(c2ccc(-c4cc(N5CC(C)(O)C5)cn5ncc(C#N)c45)cn2)C3)cc1F [Embodiment 73, 4-(6-(6-((5-Fluoro-6-methoxypyridin-3-yl)methyl)-3,6-diazabicyclo[3.1.1]heptan-3-yl)pyridin-3-yl)-6-(3-hydroxy-3-methylazetidin-1-yl)pyrazolo[1,5-a]pyridine-3-carbonitrile] | 0.00595 | 0.012
[2H]C([2H])([2H])Oc1ccc(CN2C3CC2CN(c2ccc(-c4cc(C#CC(C)(C)O)cn5ncc(C#N)c45)cn2)C3)cn1 [Embodiment 25, 6-(3-Hydroxy-3-methylbut-1-yn-1-yl)-4-(6-(6-((6-(methoxy-d3)pyridin-3-yl)methyl)-3,6-diazabicyclo[3.1.1]heptan-3-yl)pyridin-3-yl)pyrazolo[1,5-a]pyridine-3-carbonitrile] | 0.015 | 0.0135
COCC(C)(O)C#Cc1cc(-c2ccc(N3CC4CC(C3)N4Cc3ccc(OC)nc3)nc2)c2c(C#N)cnn2c1 (stereo not drawn) [Embodiment 75, 6-(3-Hydroxy-4-methoxy-3-methylbut-1-yn-1-yl)-4-(6-(6-((6-methoxypyridin-3-yl)methyl)-3,6-diazabicyclo[3.1.1]heptan-3-yl)pyridin-3-yl)pyrazolo[1,5-a]pyridine-3-carbonitrile] | 0.0244 | 0.0347
CC(C)(N)C#Cc1cc(-c2ccc(N3CCC(C)(NC(=O)c4ncccc4Cl)CC3)nc2)c2c(C#N)cnn2c1 [Embodiment 86, N-(1-(5-(6-(3-Amino-3-methylbut-1-yn-1-yl)-3-cyanopyrazolo[1,5-a]pyridin-4-yl)pyridin-2-yl)-4-methylpiperidin-4-yl)-3-chloropicolinamide] | 0.0146 | 0.0154
